Here are results for six molecules from US20230172831A1, “COSMETIC” (SHIN-ETSU CHEMICAL CO., LTD., priority 2020, published 2023).

Where two headings read alike, the source gives them in different places.

The nature of series [1]: Solubility test of ethylhexyl methoxycinnamate in silicones. The series is classed as physicochemical. Further details: key to dissolution state: “good” indicates dissolution; “poor” indicates separation. To be noted: for dissolution state: shaken 24 hours, observed after 12 days at room temperature. On the procedure: Ethylhexyl methoxycinnamate (sometimes referred to as OMC) and each silicone (sometimes referred to as Sx) weighed at a mass ratio shown in Table 1 were shaken and mixed at room temperature for 24 hours. After 12 days at room temperature, the dissolution state was observed. For each dissolution state, “good” indicates dissolution, and “poor” indicates separation.

The nature of series [2]: Solubility of oily component solid at 25° C. and crystallization test (polyethylene). Details: key to dissolution state: excellent: “Excellent” indicates uniform dissolution; “good” indicates dispersion; “poor” indicates separation. In kind it is physicochemical. As to conditions: for average penetration score: Polyethylene:silicone 1:9, solidified at 25° C. for 2 days, 1/4 cone, after 5 seconds, average of five, larger value means softer; for dissolution state: Polyethylene:silicone mass ratio 1:9, heated at 105° C. for 20 minutes, visual observation. How it is done: (§1) Oily components being solid at 25° C. and silicones weighed at a mass ratio of 1:9 were heated at 105° C. for 20 minutes to observe the dissolution state. Then, each heated mixture solution was placed in an aluminum cup, allowed to stand at 25° C. for 2 days, and solidified. The penetration score of the solid was measured with a rheometer. The dissolution states according to the visual observation during the heating were shown as follows. “Excellent” indicates uniform dissolution, “good” indicates dispersion, and “poor” indicates separation.
(§2) Moreover, in the rheometer measurement, an automatic cone-penetration measurement test apparatus RPM-101 (manufactured by RIGOSHA CO., LTD.) was used, a ¼ cone was set, and a penetration score after 5 seconds was measured five times. […] A larger value means a softer material.

Series [3] can be described thus: Solubility of oily component solid at 25° C. and crystallization test (stearyl alcohol). Further details: key to dissolution state: excellent: “Excellent” indicates uniform dissolution; “good” indicates dispersion; “poor” indicates separation. As to conditions: for average penetration score: Stearyl alcohol:silicone 1:9, solidified at 25° C. for 2 days, 1/4 cone, after 5 seconds, average of five, larger value means softer; for dissolution state: Stearyl alcohol:silicone mass ratio 1:9, heated at 105° C. for 20 minutes, visual observation. In kind it is physicochemical. How it is done:
as §1, §2

The format of series [4] is physicochemical. On the procedure:
(§3) A 1-L four-necked flask was charged with 282.6 g of 1,1,1,3,5,7,7,7-octamethyltetrasiloxane and 1.4 mg of chloroplatinic acid. An ethylene gas was blown into the mixture under stirring, and a hydrosilylation reaction took place while the temperature was held at […]. The reaction was monitored by gas chromatography. When it was observed that the proportion of a target reached 95% or more, the reaction was terminated. Distillation under reduced pressure (120° C., 10 mmHg) was performed to obtain 3,5-diethyl-1,1,1,3,5,7,7,7-octamethyltetrasiloxane as the target. The boiling point was 227° C. and the viscosity was 2.2 mm^2/s.

Series [5] can be described thus: Viscosity (kinematic viscosity, Ostwald viscometer). In kind it is physicochemical. On the procedure: Further, since the viscosity of the organosiloxane in the present invention is less than 5 mm^2/s (25° C.), favorable applicability and spreadability are sensed in the same manner as in cases of using decamethylcyclopentasiloxane having a viscosity of 4 mm^2/s (25° C.), or the like. Additionally, the feeling on use is favorable without provoking considerable sticky feeling. If the viscosity is 5 mm^2/s (25° C.) or higher, this causes poor spreading, sticky feeling is provoked, and the feeling on use is poor. Note that the viscosity (kinematic viscosity) values are measured using an Ostwald viscometer.
as §3

The conditions of series [6]: known value given for comparison; cited from earlier work.

Turning to `C[Si](C)(C)O[Si](C)(C)O[Si](C)(C)C` [KF-96L-1cs, octamethyltrisiloxane], the dissolution state entry in series [1] (Ratio of OMC:Sx 1:1 (mass)) is “poor”; in series [2], “good”; in series [3] it was “excellent”. Moreover, the average penetration score in series [2] is recorded as 30.7; in series [3] it was 31.7.

Regarding undecamethylpentasiloxane [KF-96L-2cs], the dissolution state result is given as “poor” in series [1] (Ratio of OMC:Sx 1:1 (mass)), “Poor” in series [2] and “excellent” in series [3]. The results for the average penetration score in series [2] and in series [3] were 18.6 and 34.6, respectively.

On to `C[Si](C)(C)O[Si](C)(C)O[Si](C)(C)O[Si](C)(C)C` [KF-96L-1.5cs, decamethyltetrasiloxane], for which the dissolution state result in series [1] (Ratio of OMC:Sx 1:1 (mass)) is “poor”.

A word on the boiling point: it is the temperature of boiling at a given pressure. Regarding `CC[Si](C)(O[Si](C)(C)C)O[Si](C)(CC)O[Si](C)(C)C` (centres unmarked) [Sx of Production Example 1, 3,5-Diethyl-1,1,1,3,5,7,7,7-octamethyltetrasiloxane], the dissolution state entry was “good” in series [1] (Ratio of OMC:Sx 1:1 (mass)), “good” in series [1] (Ratio of OMC:Sx 4:6 (mass)), “excellent” in series [2] and “excellent” in series [3]. In series [1] (versus KF-96L-1cs, KF-96L-1.5cs, KF-96L-2cs, TMF-1.5, KF-995, D6), the “Dissolution of ethylhexyl methoxycinnamate compared with other silicones” value is reported as “dissolved ethylhexyl methoxycinnamate to higher extent”. The average penetration score in series [2] came out at 33.7; in series [3], 49.5. Further, the boiling point in series [4] was 227 °C. The molecule also came in with a viscosity in series [5] of 2.2 mm^2/s.

For the molecule `C[Si]1(C)O[Si](C)(C)O[Si](C)(C)O[Si](C)(C)O[Si](C)(C)O[Si](C)(C)O1` [Example D6, dodecamethylhexasiloxane], the results for the average penetration score in series [2] and in series [3] were 21.0 and 31.5, respectively. In addition, in series [6], the boiling point was 245 °C.

As to `C[Si]1(C)O[Si](C)(C)O[Si](C)(C)O[Si](C)(C)O[Si](C)(C)O1` [D5:KF-995, decamethylpentasiloxane], the values for the average penetration score in series [2] and in series [3] were 22.4 and 34.4, respectively. Also, the boiling point in series [6] was 210 °C.
